Values of other authors as cited in patent US12691140B2, “Therapeutic carbon monoxide formulations” (THE BRIGHAM AND WOMEN'S HOSPITAL, INC., priority 2020, dated 2026).

Details: dogs, abdominal insufflation to COHb levels comparable to inhalation

In the case of [C-]#[O+] [CO, Carbon monoxide], the toxicity is given as “no toxicity”.
